Results published in patent US9034921B2, “Diphenylmethane derivatives as SGLT2 inhibitors” (GREEN CROSS CORPORATION, priority 2011, dated 2015).
Structures can show the parent of a compound that is named as a salt.

Target: human SGLT2 (Homo sapiens (Human), UniProt P31639)
Assay: Inhibitory effects on human SGLT2 activities (14C-AMG uptake, sodium-dependent glucose transport assay)
Format: cell-based
Conditions: CHO cells stably expressing hSGLT2, 37° C., 2 h, single determinations
Summary of the method: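 CHO cells stably expressing hSGLT2 were preincubated 10 min at 37 °C in choline (Na+-free) buffer, then exposed 2 h at 37 °C to compound in Na+ uptake buffer with 8 μM 14C-AMG and 1 mM unlabeled AMG. Radioactivity was scintillation counted; IC50 came from nonlinear regression.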

human SGLT2, sequence (P31639 whole entry): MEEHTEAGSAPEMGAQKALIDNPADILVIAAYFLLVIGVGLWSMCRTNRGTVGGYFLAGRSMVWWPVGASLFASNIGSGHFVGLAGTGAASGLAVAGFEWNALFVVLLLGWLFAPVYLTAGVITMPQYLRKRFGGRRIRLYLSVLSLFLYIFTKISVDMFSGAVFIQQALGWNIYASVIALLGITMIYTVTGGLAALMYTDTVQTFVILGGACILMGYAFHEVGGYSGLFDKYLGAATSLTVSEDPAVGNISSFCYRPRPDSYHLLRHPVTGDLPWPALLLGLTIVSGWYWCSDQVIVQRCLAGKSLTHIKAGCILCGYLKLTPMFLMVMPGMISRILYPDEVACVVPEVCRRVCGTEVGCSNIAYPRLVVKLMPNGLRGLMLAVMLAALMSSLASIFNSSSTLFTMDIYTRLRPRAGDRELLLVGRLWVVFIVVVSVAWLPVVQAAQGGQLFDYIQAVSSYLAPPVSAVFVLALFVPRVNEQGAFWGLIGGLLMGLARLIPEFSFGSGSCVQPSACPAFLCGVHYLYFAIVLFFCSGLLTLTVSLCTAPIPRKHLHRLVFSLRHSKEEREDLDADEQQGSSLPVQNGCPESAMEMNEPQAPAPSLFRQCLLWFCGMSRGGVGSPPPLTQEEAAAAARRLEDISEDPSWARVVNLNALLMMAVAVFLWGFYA

Structure (SMILES) | IC50 [nM]
CC(F)(F)c1ccc(Cc2cc([C@@H]3O[C@H](CO)[C@@H](O)[C@H](O)[C@H]3O)c3c(c2Cl)OCC3)cc1 [Example E177, (2S,3R,4R,5S,6R)-2-(7-Chloro-6-(4-(1,1-difluoroethyl)benzyl)-2,3-dihydrobenzofuran-4-yl)-6-(hydroxymethyl)tetrahydro-2H-pyran-3,4,5-triol] | 0.91
Cc1c(Cc2ccc(C3CC3)cc2)cc([C@@H]2O[C@H](CO)[C@@H](O)[C@H](O)[C@H]2O)c2c1OCC2 [Example E178, (2S,3R,4R,5S,6R)-2-(6-(4-Cyclopropylbenzyl)-7-methyl-2,3-dihydrobenzofuran-4-yl)-6-(hydroxymethyl)tetrahydro-2H-pyran-3,4,5-triol] | 1.16
C#CC(C)(O)c1ccc(Cc2cc([C@@H]3O[C@H](CO)[C@@H](O)[C@H](O)[C@H]3O)c3c(c2Cl)OCC3)cc1 (stereo partly drawn) [Example E179, (2S,3R,4R,5S,6R)-2-(7-Chloro-6-(4-(2-hydroxybut-3-yn-2-yl)benzyl)-2,3-dihydrobenzofuran-4-yl)-6-(hydroxymethyl)tetrahydro-2H-pyran-3,4,5-triol] | 5.2
C=C(C)c1ccc(Cc2cc([C@@H]3O[C@H](CO)[C@@H](O)[C@H](O)[C@H]3O)c3c(c2Cl)OCC3)cc1 [Example E180, (2S,3R,4R,5S,6R)-2-(7-Chloro-6-(4-(prop-1-en-2-yl)benzyl)-2,3-dihydrobenzofuran-4-yl)-6-(hydroxymethyl)tetrahydro-2H-pyran-3,4,5-triol] | 0.574
CC(C)c1ccc(Cc2cc([C@@H]3O[C@H](CO)[C@@H](O)[C@H](O)[C@H]3O)c3c(c2Cl)OCC3)cc1 [Example E181, (2S,3R,4R,5S,6R)-2-(7-Chloro-6-(4-isopropylbenzyl)-2,3-dihydrobenzofuran-4-yl)-6-(hydroxymethyl)tetrahydro-2H-pyran-3,4,5-triol] | 0.794
C#Cc1ccc(Cc2cc([C@@H]3O[C@H](CO)[C@@H](O)[C@H](O)[C@H]3O)c3c(c2Cl)OCC3)cc1 [Example E182, (2S,3R,4R,5S,6R)-2-(7-Chloro-6-(4-ethynylbenzyl)-2,3-dihydrobenzofuran-4-yl)-6-(hydroxymethyl)tetrahydro-2H-pyran-3,4,5-triol] | 1.03
CNCc1ccc(Cc2cc([C@@H]3O[C@H](CO)[C@@H](O)[C@H](O)[C@H]3O)c3c(c2Cl)OCC3)cc1 [Example E183, (2S,3R,4R,5S,6R)-2-(7-Chloro-6-(4-((methylamino)methyl)benzyl)-2,3-dihydrobenzofuran-4-yl)-6-(hydroxymethyl)tetrahydro-2H-pyran-3,4,5-triol trifluoro acetic acid salt] | 122
CN(C)Cc1ccc(Cc2cc([C@@H]3O[C@H](CO)[C@@H](O)[C@H](O)[C@H]3O)c3c(c2Cl)OCC3)cc1 [Example E184, (2S,3R,4R,5S,6R)-2-(7-Chloro-6-(4-((dimethylamino)methyl)benzyl)-2,3-dihydrobenzofuran-4-yl)-6-(hydroxymethyl)tetrahydro-2H-pyran-3,4,5-triol trifluoro acetic acid salt] | 162
OC[C@H]1O[C@@H](c2cc(Cc3ccc(CN4CC4)cc3)c(Cl)c3c2CCO3)[C@H](O)[C@@H](O)[C@@H]1O [Example E185, (2S,3R,4R,5S,6R)-2-(6-(4-(Aziridin-1-ylmethyl)benzyl)-7-chloro-2,3-dihydrobenzofuran-4-yl)-6-(hydroxymethyl)tetrahydro-2H-pyran-3,4,5-triol trifluoro acetic acid salt] | 164
N#Cc1ccc(Cc2cc([C@@H]3O[C@H](CO)[C@@H](O)[C@H](O)[C@H]3O)c3c(c2Cl)OCC3)cc1 [Example E186, 4-((7-Chloro-4-((2S,3R,4R,5S,6R)-3,4,5-trihydroxy-6-(hydroxymethyl)tetrahydro-2H-pyran-2-yl)-2,3-dihydrobenzofuran-6-yl)methyl)benzonitrile] | 6.06
CCCc1ccc(Cc2cc([C@@H]3O[C@H](CO)[C@@H](O)[C@H](O)[C@H]3O)c3c(c2Cl)OCC3)cc1 [Example E187, (2S,3R,4R,5S,6R)-2-(7-Chloro-6-(4-propylbenzyl)-2,3-dihydrobenzofuran-4-yl)-6-(hydroxymethyl)tetrahydro-2H-pyran-3,4,5-triol] | 1.17
CN(C)c1ccc(Cc2cc([C@@H]3O[C@H](CO)[C@@H](O)[C@H](O)[C@H]3O)c3c(c2Cl)OCC3)cc1 [Example E190, (2S,3R,4R,5S,6R)-2-(7-Chloro-6-(4-(dimethylamino)benzyl)-2,3-dihydrobenzofuran-4-yl)-6-(hydroxymethyl)tetrahydro-2H-pyran-3,4,5-triol] | 1.11
OC[C@H]1O[C@@H](c2cc(Cc3ccc4c(c3)OCCO4)c(Cl)c3c2OCC3)[C@H](O)[C@@H](O)[C@@H]1O [Example E191, (2S,3R,4R,5S,6R)-2-(4-Chloro-5-((2,3-dihydrobenzo[b][1,4]dioxin-6-yl)methyl)-2,3-dihydrobenzofuran-7-yl)-6-(hydroxymethyl)tetrahydro-2H-pyran-3,4,5-triol] | 1.57
OC[C@H]1O[C@@H](c2cc(Cc3ccc(O)cc3)c(Cl)c3c2CCO3)[C@H](O)[C@@H](O)[C@@H]1O [Example E192, (2S,3R,4R,5S,6R)-2-(7-Chloro-6-(4-hydroxybenzyl)-2,3-dihydrobenzofuran-4-yl)-6-(hydroxymethyl)tetrahydro-2H-pyran-3,4,5-triol] | 1.63
OCCCOc1ccc(Cc2cc([C@@H]3O[C@H](CO)[C@@H](O)[C@H](O)[C@H]3O)c3c(c2Cl)OCC3)cc1 [Example E193, (2S,3R,4R,5S,6R)-2-(7-Chloro-6-(4-(3-hydroxypropoxy)benzyl)-2,3-dihydrobenzofuran-4-yl)-6-(hydroxymethyl)tetrahydro-2H-pyran-3,4,5-triol] | 1.87
CCCOc1ccc(Cc2cc([C@@H]3O[C@H](CO)[C@@H](O)[C@H](O)[C@H]3O)c3c(c2Cl)OCC3)cc1 [Example E194, (2S,3R,4R,5S,6R)-2-(7-Chloro-6-(4-propoxybenzyl)-2,3-dihydrobenzofuran-4-yl)-6-(hydroxymethyl)tetrahydro-2H-pyran-3,4,5-triol] | 1.22
COc1ccc(Cc2cc([C@@H]3O[C@H](CO)[C@@H](O)[C@H](O)[C@H]3O)c3c(c2Cl)C(=O)CO3)cc1 [Example E195, 4-Chloro-5-(4-methoxybenzyl)-7-((2S,3R,4R,5S,6R)-3,4,5-trihydroxy-6-(hydroxymethyl)tetrahydro-2H-pyran-2-yl)benzofuran-3(2H)-one] | 35.1
COc1ccc(Cc2cc([C@@H]3O[C@H](CO)[C@@H](O)[C@H](O)[C@H]3O)c3c(c2Cl)C(O)CO3)cc1 (stereo partly drawn) [Example E196, (2S,3R,4R,5S,6R)-2-(4-Chloro-3-hydroxy-5-(4-methoxybenzyl)-2,3-dihydrobenzofuran-7-yl)-6-(hydroxymethyl)tetrahydro-2H-pyran-3,4,5-triol] | 3.56
CN(C)c1ccc(Cc2cc([C@@H]3O[C@H](CO)[C@@H](O)[C@H](O)[C@H]3O)c3c(c2Cl)CCO3)cc1 [Example E197, (2S,3R,4R,5S,6R)-2-(4-Chloro-5-(4-(dimethylamino)benzyl)-2,3-dihydrobenzofuran-7-yl)-6-(hydroxymethyl)tetrahydro-2H-pyran-3,4,5-triol] | 3.22
OC[C@H]1O[C@@H](c2cc(Cc3ccc(OCCOC4CC4)cc3)c(Cl)c3c2CCO3)[C@H](O)[C@@H](O)[C@@H]1O [Example E198, (2S,3R,4R,5S,6R)-2-(7-Chloro-6-(4-(2-cyclopropoxyethoxy)benzyl)-2,3-dihydrobenzofuran-4-yl)-6-(hydroxymethyl)tetrahydro-2H-pyran-3,4,5-triol] | 2.02
OC[C@H]1O[C@@H](c2cc(Cc3ccc(OC(F)(F)F)cc3)c(Cl)c3c2CCO3)[C@H](O)[C@@H](O)[C@@H]1O [Example E200, (2S,3R,4R,5S,6R)-2-(7-Chloro-6-(4-(trifluoromethoxy)benzyl)-2,3-dihydrobenzofuran-4-yl)-6-(hydroxymethyl)tetrahydro-2H-pyran-3,4,5-triol] | 1.08
COc1ccc(Cc2cc([C@@H]3O[C@H](CO)[C@@H](O)[C@H](O)[C@H]3O)c3oc(C)c(OC)c3c2Cl)cc1 [Example E201, (2S,3R,4R,5S,6R)-2-(4-Chloro-3-methoxy-5-(4-methoxybenzyl)-2-methylbenzofuran-7-yl)-6-(hydroxymethyl)tetrahydro-2H-pyran-3,4,5-triol] | 49.4
COc1ccc(Cc2cc([C@@H]3O[C@H](CO)[C@@H](O)[C@H](O)[C@H]3O)c3occ(OC)c3c2Cl)cc1 [Example E202, (2S,3R,4R,5S,6R)-2-(4-Chloro-3-methoxy-5-(4-methoxybenzyl)benzofuran-7-yl)-6-(hydroxymethyl)tetrahydro-2H-pyran-3,4,5-triol] | 42.3
N#CCc1ccc(Cc2cc([C@@H]3O[C@H](CO)[C@@H](O)[C@H](O)[C@H]3O)c3c(c2Cl)OCC3)cc1 [Example E203, 2-(4-((7-Chloro-4-((2S,3R,4R,5S,6R)-3,4,5-trihydroxy-6-(hydroxymethyl)tetrahydro-2H-pyran-2-yl)-2,3-dihydrobenzofuran-6-yl)methyl)phenyl)acetonitrile] | 1.81
OC[C@H]1O[C@@H](c2cc(Cc3ccc(OC4COC4)cc3)c(Cl)c3c2CCO3)[C@H](O)[C@@H](O)[C@@H]1O [Example E204, (2S,3R,4R,5S,6R)-2-(7-Chloro-6-(4-(oxetan-3-yloxy)benzyl)-2,3-dihydrobenzofuran-4-yl)-6-(hydroxymethyl)tetrahydro-2H-pyran-3,4,5-triol] | 5.05
CC(C)Oc1ccc(Cc2cc([C@@H]3O[C@H](CO)[C@@H](O)[C@H](O)[C@H]3O)c3c(c2Cl)OCC3)cc1 [Example E205, (2S,3R,4R,5S,6R)-2-(7-Chloro-6-(4-isopropoxybenzyl)-2,3-dihydrobenzofuran-4-yl)-6-(hydroxymethyl)tetrahydro-2H-pyran-3,4,5-triol] | 1.96
OC[C@H]1O[C@@H](c2cc(Cc3ccc(SC4CC4)cc3)c(Cl)c3c2CCO3)[C@H](O)[C@@H](O)[C@@H]1O [Example E206, (2S,3R,4R,5S,6R)-2-(7-Chloro-6-(4-(cyclopropylthio)benzyl)-2,3-dihydrobenzofuran-4-yl)-6-(hydroxymethyl)tetrahydro-2H-pyran-3,4,5-triol] | 1.88
